Data published in the supplement of paper PMC10307832.

What was measured:
Assay in all cases: relative viability (nuclei count vs DMSO), 5 days (fraction); higher = more cells survive
Pemetrexed + Palbociclib = compound: Nc1nc2[nH]cc(CCc3ccc(C(=O)N[C@@H](CCC(=O)O)C(=O)O)cc3)c2c(=O)[nH]1 [Pemetrexed] + CC(=O)c1c(C)c2cnc(Nc3ccc(N4CCNCC4)cn3)nc2n(C2CCCC2)c1=O [Palbociclib] (partner 0.5 µM)
Procedure, shortened: (§1)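 Medians of duplicate plates are given as relative viability. That measure is the nuclei count in treated wells divided by the count in vehicle wells. Counts were taken on 4× images of lung cancer cell lines in 1536-well plates, 5 days after pin-tool dosing the day after seeding with one drug alone or a fixed anchor-drug dose plus five library-drug doses (not always all listed) in √10 steps.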

Idelalisib + OSI-027 = compound: CC[C@H](Nc1ncnc2[nH]cnc12)c1nc2cccc(F)c2c(=O)n1-c1ccccc1 [Idelalisib] + COc1cccc2cc(-c3nc([C@H]4CC[C@H](C(=O)O)CC4)n4ncnc(N)c34)[nH]c12 [OSI-027] (partner 0.5 µM)
Procedure, shortened: as §1

Idelalisib + Trametinib = compound: CC[C@H](Nc1ncnc2[nH]cnc12)c1nc2cccc(F)c2c(=O)n1-c1ccccc1 [Idelalisib] + CC(=O)Nc1cccc(-n2c(=O)n(C3CC3)c(=O)c3c(Nc4ccc(I)cc4F)n(C)c(=O)c(C)c32)c1 [Trametinib] (partner 0.02 µM)
Procedure, shortened: as §1

Pemetrexed + Luminespib = compound: Nc1nc2[nH]cc(CCc3ccc(C(=O)N[C@@H](CCC(=O)O)C(=O)O)cc3)c2c(=O)[nH]1 [Pemetrexed] + CCNC(=O)c1noc(-c2cc(C(C)C)c(O)cc2O)c1-c1ccc(CN2CCOCC2)cc1 [Luminespib] (partner 0.01 µM)
Procedure, shortened: as §1

| Cell Line | relative viability (Pemetrexed + Palbociclib; first compound 0.002 µM) | relative viability (Pemetrexed + Palbociclib; first compound 0.006325 µM) | relative viability (Pemetrexed + Palbociclib; first compound 0.02 µM) | relative viability (Pemetrexed + Palbociclib; first compound 0.06325 µM) | relative viability (Pemetrexed + Palbociclib; first compound 0.2 µM) | relative viability (Idelalisib + OSI-027; first compound 0.04 µM) | relative viability (Idelalisib + OSI-027; first compound 0.1265 µM) | relative viability (Idelalisib + OSI-027; first compound 1.265 µM) | relative viability (Idelalisib + OSI-027; first compound 4 µM) | relative viability (Idelalisib + Trametinib; first compound 0.04 µM) | relative viability (Idelalisib + Trametinib; first compound 0.1265 µM) | relative viability (Idelalisib + Trametinib; first compound 0.4 µM) | relative viability (Idelalisib + Trametinib; first compound 1.265 µM) | relative viability (Idelalisib + Trametinib; first compound 4 µM) | relative viability (Pemetrexed + Luminespib; first compound 0.002 µM) | relative viability (Pemetrexed + Luminespib; first compound 0.006325 µM) | relative viability (Pemetrexed + Luminespib; first compound 0.02 µM) | relative viability (Pemetrexed + Luminespib; first compound 0.06325 µM) | relative viability (Pemetrexed + Luminespib; first compound 0.2 µM) | relative viability (Idelalisib + OSI-027; first compound 0.4 µM) |
| --- | --- | --- | --- | --- | --- | --- | --- | --- | --- | --- | --- | --- | --- | --- | --- | --- | --- | --- | --- | --- |
| NCI-H647 | 0.353 | 0.352 | 0.393 | 0.288 | 0.158 | 0.758 | 0.64 | 0.527 | 0.423 | 0.431 | 0.485 | 0.423 | 0.354 | 0.239 | 0.21 | 0.189 | 0.257 | 0.17 | 0.131 | – |
| BEN | 0.544 | 0.473 | 0.531 | 0.457 | 0.458 | 0.263 | 0.286 | 0.294 | 0.291 | 1.01 | 0.98 | 0.929 | 0.735 | 0.766 | 0.491 | 0.435 | 0.374 | 0.484 | 0.559 | 0.257 |
| 201T | 0.396 | 0.352 | 0.365 | 0.335 | 0.362 | 0.812 | 0.736 | 0.67 | 0.679 | 0.701 | 0.697 | 0.688 | 0.759 | 0.734 | 1.03 | 1.04 | 1.05 | 1.1 | 1.09 | 0.548 |
| LC-2-ad | 0.452 | 0.501 | 0.524 | 0.431 | 0.404 | 0.944 | 0.781 | 0.82 | 0.715 | 0.963 | 0.957 | 0.931 | 1.02 | 0.806 | 1.09 | 0.989 | 0.709 | 0.313 | 0.303 | 0.651 |
| NCI-H522 | 1.22 | 0.82 | 1.09 | 0.985 | 0.843 | 0.823 | 0.711 | 0.771 | 0.698 | 0.76 | 0.646 | 0.668 | 0.727 | 0.731 | 1.21 | 1 | 1.29 | 1.12 | 1.24 | 0.729 |
| LCLC-97TM1 | 0.225 | 0.228 | 0.206 | 0.21 | 0.259 | 0.649 | 0.543 | 0.554 | 0.418 | 0.194 | 0.21 | 0.216 | 0.228 | 0.163 | 0.906 | 0.74 | 0.81 | 0.761 | 0.65 | 0.24 |
| NCI-H1915 | 0.487 | 0.512 | 0.568 | 0.521 | 0.522 | 0.699 | 0.633 | 0.739 | 0.53 | 0.281 | 0.291 | 0.291 | 0.317 | 0.265 | 0.818 | 0.857 | 0.84 | 0.836 | 0.781 | 0.627 |
| NCI-H3122 | 0.164 | 0.192 | 0.206 | 0.222 | 0.165 | 0.879 | 0.952 | 0.941 | 0.764 | 0.224 | 0.223 | 0.188 | 0.235 | 0.225 | 0.106 | 0.106 | 0.106 | 0.0892 | 0.0783 | 0.729 |
| NCI-H1650 | 0.284 | 0.299 | 0.381 | 0.247 | 0.245 | 0.641 | 0.602 | 0.578 | 0.536 | 0.524 | 0.46 | 0.618 | 0.51 | 0.575 | 0.192 | 0.18 | 0.199 | 0.178 | 0.183 | 0.478 |
| NCI-H1993 | 1.1 | 0.605 | 0.635 | 0.727 | 0.554 | 0.575 | 0.53 | 0.584 | 0.552 | 0.688 | 0.302 | 0.617 | 0.547 | 0.448 | 0.432 | 0.623 | 0.868 | 0.913 | 0.41 | 0.512 |
| NCI-H2405 | 0.524 | 0.531 | 0.535 | 0.514 | 0.48 | 0.675 | 0.648 | 0.612 | 0.516 | 0.672 | 0.656 | 0.423 | 0.622 | 0.515 | 0.703 | 0.775 | 0.77 | 0.818 | 0.789 | 0.433 |
| NCI-H661 | 0.501 | 0.419 | 0.405 | 0.415 | 0.386 | 0.705 | 0.838 | 0.661 | 0.706 | 0.585 | 0.579 | 0.535 | 0.618 | 0.502 | 0.958 | 0.882 | 0.934 | 0.884 | 0.85 | 0.607 |
| NCI-H2342 | 0.494 | 0.505 | 0.57 | 0.514 | 0.521 | 0.587 | 0.613 | 0.641 | 0.618 | 0.804 | 0.851 | 0.779 | 0.753 | 0.658 | 0.678 | 0.8 | 0.676 | 0.799 | 0.788 | 0.582 |
